The supplement of paper PMC5908809

Assays:
[1] = system: normal NK cells expanded with K562-aAPC; assay: percent inhibition of viability; higher = more inhibition; conditions: 72 h, IL-2 2.5 ng/mL
Protocol: (§1)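 Drug sensitivity and resistance testing on K562-aAPC-expanded normal NK cells: 5 concentrations (10-fold steps over a 10,000-fold range), 72 h at 37 °C, viability by CellTiter-Glo normalised to DMSO and benzethonium chloride controls; DSS from the fitted curve.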

[2] = system: normal NK cells expanded with K562-aAPC; assay: drug sensitivity score (DSS) (DSS units); higher = more sensitive; extreme values may be limits of the assay; conditions: 72 h; IL-2 2.5 ng/mL
Protocol: as §1

[3] = system: DERL-7 (IL-2 2.5 ng/mL); assay: percent inhibition of viability; higher = more inhibition; conditions: 72 h
[4] = system: normal primary NK cells, pool 3 (3 donors) (IL-2 2.5 ng/mL); assay: as above; conditions: 72 h
[5] = system: NKL (IL-2 2.5 ng/mL); assay: as above; conditions: 72 h
[6] = system: normal primary NK cells, pool 1 (3 donors), resting (IL-2 0 ng/mL); assay: as above; conditions: 72 h
[7] = system: SNK-6 (IL-2 2.5 ng/mL); assay: as above; conditions: 72 h
[8] = system: normal primary NK cells, pool 1 (3 donors) (IL-2 2.5 ng/mL); assay: as above; conditions: 72 h
[9] = system: normal primary NK cells, pool 2 (3 donors) (IL-2 2.5 ng/mL); assay: as above; conditions: 72 h
[10] = system: KAI3 (IL-2 2.5 ng/mL); assay: as above; conditions: 72 h
[11] = system: NK-YS (IL-2 2.5 ng/mL); assay: as above; conditions: 72 h
[12] = system: IMC-1 (IL-2 20 ng/mL); assay: as above; conditions: 72 h
[13] = system: YT (IL-2 2.5 ng/mL); assay: as above; conditions: 72 h
[14] = system: NK-92 (IL-2 2.5 ng/mL); assay: as above; conditions: 72 h
[15] = system: KHYG-1 (IL-2 2.5 ng/mL); assay: as above; conditions: 72 h
[16] = system: DERL-7 (IL-2 2.5 ng/mL); assay: drug sensitivity score (DSS) (DSS units); higher = more sensitive; extreme values may be limits of the assay; conditions: 72 h
[17] = system: normal primary NK cells, pool 3 (3 donors) (IL-2 2.5 ng/mL); assay: as above; conditions: 72 h
[18] = system: NKL (IL-2 2.5 ng/mL); assay: as above; conditions: 72 h
[19] = system: normal primary NK cells, pool 1 (3 donors), resting (IL-2 0 ng/mL); assay: as above; conditions: 72 h
[20] = system: SNK-6 (IL-2 2.5 ng/mL); assay: as above; conditions: 72 h
[21] = system: normal primary NK cells, pool 1 (3 donors) (IL-2 2.5 ng/mL); assay: as above; conditions: 72 h
[22] = system: normal primary NK cells, pool 2 (3 donors) (IL-2 2.5 ng/mL); assay: as above; conditions: 72 h
[23] = system: KAI3 (IL-2 2.5 ng/mL); assay: as above; conditions: 72 h
[24] = system: NK-YS (IL-2 2.5 ng/mL); assay: as above; conditions: 72 h
[25] = system: IMC-1 (IL-2 20 ng/mL); assay: as above; conditions: 72 h
[26] = system: YT (IL-2 2.5 ng/mL); assay: as above; conditions: 72 h
[27] = system: NK-92 (IL-2 2.5 ng/mL); assay: as above; conditions: 72 h
[28] = system: KHYG-1 (IL-2 2.5 ng/mL); assay: as above; conditions: 72 h

## Cc1nc(C(=O)NCC(=O)O)c(O)c2ccc(Oc3ccccc3)cc12 [FG-4592] (max concentration tested 10000 nM)
[1]; 1 nM
  percent inhibition of viability: -0.43%
[1]; 10 nM
  percent inhibition of viability: -0.13%
[1]; 100 nM
  percent inhibition of viability: -0.05%
[1]; 1000 nM
  percent inhibition of viability: 6.19%
[1]; 10000 nM
  percent inhibition of viability: 12.6%
[2]
  drug sensitivity score: 0.37
[3]; 1 nM
  percent inhibition of viability: -0.63%
[3]; 10 nM
  percent inhibition of viability: 3.45%
[3]; 100 nM
  percent inhibition of viability: 4.49%
[3]; 1000 nM
  percent inhibition of viability: 0.12%
[3]; 10000 nM
  percent inhibition of viability: 6.99%
[4]; 1 nM
  percent inhibition of viability: -2.12%
[4]; 10 nM
  percent inhibition of viability: -3.88%
[4]; 100 nM
  percent inhibition of viability: -1.26%
[4]; 1000 nM
  percent inhibition of viability: 5.12%
[4]; 10000 nM
  percent inhibition of viability: 5.24%
[5]; 1 nM
  percent inhibition of viability: -14%
[5]; 10 nM
  percent inhibition of viability: -13%
[5]; 100 nM
  percent inhibition of viability: -11.3%
[5]; 1000 nM
  percent inhibition of viability: -0.19%
[5]; 10000 nM
  percent inhibition of viability: 22.6%
[6]; 1 nM
  percent inhibition of viability: 5.05%
[6]; 10 nM
  percent inhibition of viability: -14.3%
[6]; 100 nM
  percent inhibition of viability: 2.92%
[6]; 1000 nM
  percent inhibition of viability: -12.2%
[6]; 10000 nM
  percent inhibition of viability: -4.7%
[7]; 1 nM
  percent inhibition of viability: 3.91%
[7]; 10 nM
  percent inhibition of viability: -11.4%
[7]; 100 nM
  percent inhibition of viability: 5.11%
[7]; 1000 nM
  percent inhibition of viability: 2.73%
[7]; 10000 nM
  percent inhibition of viability: 28%
[8]; 1 nM
  percent inhibition of viability: 0.46%
[8]; 10 nM
  percent inhibition of viability: 1.21%
[8]; 100 nM
  percent inhibition of viability: -8.95%
[8]; 1000 nM
  percent inhibition of viability: -4.43%
[8]; 10000 nM
  percent inhibition of viability: -4.71%
[9]; 1 nM
  percent inhibition of viability: -11.8%
[9]; 10 nM
  percent inhibition of viability: -5.39%
[9]; 100 nM
  percent inhibition of viability: -6.37%
[9]; 1000 nM
  percent inhibition of viability: 1.43%
[9]; 10000 nM
  percent inhibition of viability: 10.4%
[10]; 1 nM
  percent inhibition of viability: 1.56%
[10]; 10 nM
  percent inhibition of viability: -2.99%
[10]; 100 nM
  percent inhibition of viability: 1.6%
[10]; 1000 nM
  percent inhibition of viability: -0.39%
[10]; 10000 nM
  percent inhibition of viability: 17.9%
[11]; 1 nM
  percent inhibition of viability: -2.71%
[11]; 10 nM
  percent inhibition of viability: -1.91%
[11]; 100 nM
  percent inhibition of viability: 3.2%
[11]; 1000 nM
  percent inhibition of viability: 3.83%
[11]; 10000 nM
  percent inhibition of viability: 27.3%
[12]; 1 nM
  percent inhibition of viability: -3.51%
[12]; 10 nM
  percent inhibition of viability: -1.09%
[12]; 100 nM
  percent inhibition of viability: 1.25%
[12]; 1000 nM
  percent inhibition of viability: -1.57%
[12]; 10000 nM
  percent inhibition of viability: 22.9%
[13]; 1 nM
  percent inhibition of viability: 1.14%
[13]; 10 nM
  percent inhibition of viability: -2.12%
[13]; 100 nM
  percent inhibition of viability: -1.6%
[13]; 1000 nM
  percent inhibition of viability: -8.84%
[13]; 10000 nM
  percent inhibition of viability: 8.38%
[14]; 1 nM
  percent inhibition of viability: -0.86%
[14]; 10 nM
  percent inhibition of viability: -2.06%
[14]; 100 nM
  percent inhibition of viability: 10.9%
[14]; 1000 nM
  percent inhibition of viability: 12.5%
[14]; 10000 nM
  percent inhibition of viability: 8.29%
[15]; 1 nM
  percent inhibition of viability: 0.18%
[15]; 10 nM
  percent inhibition of viability: -1.43%
[15]; 100 nM
  percent inhibition of viability: 2.3%
[15]; 1000 nM
  percent inhibition of viability: 3.63%
[15]; 10000 nM
  percent inhibition of viability: 19.2%
[16]
  drug sensitivity score: 0
[17]
  drug sensitivity score: 0
[18]
  drug sensitivity score: 0.76
[19]
  drug sensitivity score: 0
[20]
  drug sensitivity score: 1.59
[21]
  drug sensitivity score: 0
[22]
  drug sensitivity score: 0
[23]
  drug sensitivity score: 0.42
[24]
  drug sensitivity score: 1.72
[25]
  drug sensitivity score: 0.7
[26]
  drug sensitivity score: 0
[27]
  drug sensitivity score: 1.18
[28]
  drug sensitivity score: 1

## CNNCc1ccc(C(=O)NC(C)C)cc1 [Procarbazine] (max concentration tested 10000 nM)
[1]; 1 nM
  percent inhibition of viability: -2.09%
[1]; 10 nM
  percent inhibition of viability: -5.44%
[1]; 100 nM
  percent inhibition of viability: -0.68%
[1]; 1000 nM
  percent inhibition of viability: -4.82%
[1]; 10000 nM
  percent inhibition of viability: -4.8%
[2]
  drug sensitivity score: 0
[3]; 1 nM
  percent inhibition of viability: -5.96%
[3]; 10 nM
  percent inhibition of viability: -2.97%
[3]; 100 nM
  percent inhibition of viability: -1.35%
[3]; 1000 nM
  percent inhibition of viability: -4.02%
[3]; 10000 nM
  percent inhibition of viability: -1.33%
[4]; 1 nM
  percent inhibition of viability: -11.8%
[4]; 10 nM
  percent inhibition of viability: -5.14%
[4]; 100 nM
  percent inhibition of viability: -5.98%
[4]; 1000 nM
  percent inhibition of viability: -4.43%
[4]; 10000 nM
  percent inhibition of viability: -4%
[5]; 1 nM
  percent inhibition of viability: -15.8%
[5]; 10 nM
  percent inhibition of viability: -21.9%
[5]; 100 nM
  percent inhibition of viability: -20.6%
[5]; 1000 nM
  percent inhibition of viability: -22.9%
[5]; 10000 nM
  percent inhibition of viability: -16.7%
[6]; 1 nM
  percent inhibition of viability: -10.9%
[6]; 10 nM
  percent inhibition of viability: -14.4%
[6]; 100 nM
  percent inhibition of viability: -17.2%
[6]; 1000 nM
  percent inhibition of viability: 1.81%
[6]; 10000 nM
  percent inhibition of viability: -7.55%
[7]; 1 nM
  percent inhibition of viability: -3.98%
[7]; 10 nM
  percent inhibition of viability: 12.4%
[7]; 100 nM
  percent inhibition of viability: 2.31%
[7]; 1000 nM
  percent inhibition of viability: 3.29%
[7]; 10000 nM
  percent inhibition of viability: -21.5%
[8]; 1 nM
  percent inhibition of viability: -3.19%
[8]; 10 nM
  percent inhibition of viability: -6.37%
[8]; 100 nM
  percent inhibition of viability: -6.53%
[8]; 1000 nM
  percent inhibition of viability: -1.7%
[8]; 10000 nM
  percent inhibition of viability: -5.09%
[9]; 1 nM
  percent inhibition of viability: -13.7%
[9]; 10 nM
  percent inhibition of viability: -3.7%
[9]; 100 nM
  percent inhibition of viability: -4.8%
[9]; 1000 nM
  percent inhibition of viability: -10%
[9]; 10000 nM
  percent inhibition of viability: -2.4%
[10]; 1 nM
  percent inhibition of viability: -11.1%
[10]; 10 nM
  percent inhibition of viability: -15.3%
[10]; 100 nM
  percent inhibition of viability: -9.69%
[10]; 1000 nM
  percent inhibition of viability: -2.54%
[10]; 10000 nM
  percent inhibition of viability: -7.53%
[11]; 1 nM
  percent inhibition of viability: -8.8%
[11]; 10 nM
  percent inhibition of viability: -5.02%
[11]; 100 nM
  percent inhibition of viability: -3.78%
[11]; 1000 nM
  percent inhibition of viability: -7.11%
[11]; 10000 nM
  percent inhibition of viability: -5.77%
[12]; 1 nM
  percent inhibition of viability: -5.39%
[12]; 10 nM
  percent inhibition of viability: -4.18%
[12]; 100 nM
  percent inhibition of viability: -3.85%
[12]; 1000 nM
  percent inhibition of viability: -5.41%
[12]; 10000 nM
  percent inhibition of viability: -5.74%
[13]; 1 nM
  percent inhibition of viability: -8.77%
[13]; 10 nM
  percent inhibition of viability: -3.75%
[13]; 100 nM
  percent inhibition of viability: -6.96%
[13]; 1000 nM
  percent inhibition of viability: -5.83%
[13]; 10000 nM
  percent inhibition of viability: -8.88%
[14]; 1 nM
  percent inhibition of viability: -19%
[14]; 10 nM
  percent inhibition of viability: -5.13%
[14]; 100 nM
  percent inhibition of viability: -2.68%
[14]; 1000 nM
  percent inhibition of viability: -0.23%
[14]; 10000 nM
  percent inhibition of viability: -12.9%
[15]; 1 nM
  percent inhibition of viability: -6.92%
[15]; 10 nM
  percent inhibition of viability: -2.1%
[15]; 100 nM
  percent inhibition of viability: -5.13%
[15]; 1000 nM
  percent inhibition of viability: -6.74%
[15]; 10000 nM
  percent inhibition of viability: -9.22%
[16]
  drug sensitivity score: 0
[17]
  drug sensitivity score: 0
[18]
  drug sensitivity score: 0
[19]
  drug sensitivity score: 0
[20]
  drug sensitivity score: 0
[21]
  drug sensitivity score: 0
[22]
  drug sensitivity score: 0
[23]
  drug sensitivity score: 0
[24]
  drug sensitivity score: 0
[25]
  drug sensitivity score: 0
[26]
  drug sensitivity score: 0
[27]
  drug sensitivity score: 0
[28]
  drug sensitivity score: 0
